Assay results as given in PubChem BioAssay (NCI).
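Step 1: Grow cells in 96-well plates. Step 2: Expose to compound for 48 hours at 5 concentrations. Step 3: Interpolate endpoints linearly; if unreached, use highest concentration. Definition used: TGI = concentration required for complete inhibition of growth.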

Key:
Assay in all cases: NCI tumour cell line growth inhibition, 48 h
[1] = test system: A549 NSCLC
[2] = test system: ACHN renal
[3] = test system: CCRF-CEM leukemia
[4] = test system: HCT-116 colon
[5] = test system: HCT-15 colon
[6] = test system: HL-60(TB) leukemia
[7] = test system: K-562 leukemia
[8] = test system: MALME-3M melanoma
[9] = test system: NCI-H23 lung
[10] = test system: OVCAR-3 ovarian
[11] = test system: OVCAR-5 ovarian
[12] = test system: RPMI-8226 leukemia
[13] = test system: SK-MEL-28 melanoma
[14] = test system: SK-MEL-5 melanoma
[15] = test system: SK-OV-3 ovarian
[16] = test system: SNB-75 CNS
[17] = test system: TK-10 renal

Row | SMILES | TGI [1] [µM] | TGI [2] [µM] | TGI [3] [µM] | TGI [4] [µM] | TGI [5] [µM] | TGI [6] [µM] | TGI [7] [µM] | TGI [8] [µM] | TGI [9] [µM] | TGI [10] [µM] | TGI [11] [µM] | TGI [12] [µM] | TGI [13] [µM] | TGI [14] [µM] | TGI [15] [µM] | TGI [16] [µM] | TGI [17] [µM]
1 | CC(C)N(C(=O)C12C3C4C1C1C2C3C41C(=O)N(C(C)C)C(C)C)C(C)C (configuration not stated) | > 50 | > 50 | > 50 | > 50 | > 50 | > 50 | > 50 | > 50 | > 50 | > 50 | > 50 | > 50 | > 50 | > 50 | > 50 | > 50 | > 50
2 | O=c1ccn(/C=C/C(O)C(O)CO)c(=O)[nH]1 (configuration not stated) | > 100 | > 100 | > 100 | > 100 | > 100 | > 100 | > 100 | > 100 | > 100 | > 100 | > 100 | > 100 | > 100 | > 100 | > 100 | > 100 | > 100
3 | Cc1nnc(N/N=C(/C(=O)C(C#N)c2ccc(Cl)cc2)C(C#N)c2ccc(Cl)cc2)n1N (configuration not stated) | 43.9 | 30.8 | > 100 | – | 49.4 | 55.4 | 45.4 | 33.6 | 35.3 | 48.8 | 33.6 | 45.6 | 33.8 | 30.9 | – | 30.1 | 34.7
4 | CN(C)C(F)=PC(F)(F)F (configuration not stated) | > 100 | > 100 | > 100 | > 100 | > 100 | > 100 | > 100 | > 100 | > 100 | – | > 100 | > 100 | > 100 | > 100 | > 100 | > 100 | > 100
5 | CSc1ccc2c(cc1=O)C(NC(=O)c1ccc(C#N)cc1)CCc1cc(O)c(O)c(O)c1-2 (configuration not stated) | > 100 | > 100 | 57.8 | 32.5 | 36.6 | 51.9 | 25.1 | > 100 | 71.3 | > 100 | > 100 | – | > 100 | 71.5 | 63.7 | 14.6 | > 100
6 | Cn1nc(-c2ccccc2)c(C(=O)/C=C/c2ccc(Cl)cc2)c(N2CCOCC2)c1=O | 23.1 | 17 | 7.1 | 3.96 | 13.4 | 4.38 | 9.41 | – | 8.25 | – | – | 6.74 | 7.64 | 17.2 | 19.7 | – | 25.8
7 | O=C(O)C12CC3CC(CC(F)(C3)C1)C2 | > 100 | > 100 | > 100 | > 100 | – | > 100 | > 100 | > 100 | > 100 | > 100 | > 100 | > 100 | > 100 | > 100 | > 100 | > 100 | > 100
8 | CCc1ccccc1NC(=O)CC1NC(=O)CS1 (configuration not stated) | > 100 | – | > 100 | > 100 | – | > 100 | > 100 | > 100 | > 100 | > 100 | > 100 | > 100 | > 100 | > 100 | > 100 | > 100 | > 100
9 | CN(C)CC(/C(Cc1ccccc1)=N\NC(=S)NN)c1ccccc1 (configuration not stated) | > 100 | > 100 | – | > 100 | > 100 | > 100 | > 100 | > 100 | > 100 | > 100 | > 100 | > 100 | > 100 | – | > 100 | > 100 | > 100
10 | N#CNC1=NC(N)C(c2nc3ccccc3[nH]2)=C(CCCC(=O)Nc2cccc([N+](=O)[O-])c2)N1 (configuration not stated) | > 100 | > 100 | > 100 | – | > 100 | > 100 | > 100 | > 100 | > 100 | > 100 | > 100 | > 100 | > 100 | > 100 | > 100 | > 100 | > 100
11 | COc1cc(-c2cc(=O)c3ccccc3[nH]2)cc(OC)c1OC | > 75 | > 75 | > 75 | > 75 | > 75 | > 7.5 | > 75 | > 75 | > 75 | > 75 | – | > 75 | > 75 | – | > 75 | > 75 | > 75
12 | Cc1ccc(C2=Nc3ccccc3SC(c3cccc4c3OCO4)C2)cc1 (configuration not stated) | 72.4 | 53.8 | 37.9 | – | 54.1 | 39 | 38.3 | 56 | 39.8 | 28.5 | 51.5 | 54.2 | 32.9 | 31.1 | 76.3 | 28.8 | 40.3
13 | Oc1cccnc1/C=N/OCc1ccccc1 | > 100 | > 100 | > 100 | > 100 | > 100 | > 100 | > 100 | > 100 | – | > 100 | > 100 | > 100 | – | > 100 | > 100 | > 100 | > 100
